Source: patent publication US7217730B2, “Method for the use of pyranoindole derivatives to treat infection with Hepatitis C virus” (Wyeth, priority 2002, dated 2007)

Molecular target: T1, NS5B from the BK strain (genotype 1b) (Hepatitis C virus genotype 1b, UniProt P26663)
T1 construct: NS5B from the BK strain (genotype 1b) is expressed in E. coli as a protein in which the 21 C-terminal amino acids are replaced; made in house; host or cells: E. coli
Test: Hepatitis C polymerase inhibition, NS5B BK strain, 33P-GTP filter assay
Format: biochemical
Settings: Table 1A; for inhibition at 20 µM: 20 μM compound, read-out: HCV pol % inh at 20 μM; for IC50: NS5B BK strain, read-out: HCV pol BK IC50
Outline: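 Radiolabelled RNA synthesis was measured by filter capture and scintillation counting after EDTA stop. His-tagged, C-terminally truncated (Δ21) genotype 1b BK NS5B from E. coli, pre-exposed to compound for 15 min, copied a self-primed RNA template (~3 nM) with α-[33P]-GTP for 2 h at room temperature.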

T1 sequence (P26663 2420-2989): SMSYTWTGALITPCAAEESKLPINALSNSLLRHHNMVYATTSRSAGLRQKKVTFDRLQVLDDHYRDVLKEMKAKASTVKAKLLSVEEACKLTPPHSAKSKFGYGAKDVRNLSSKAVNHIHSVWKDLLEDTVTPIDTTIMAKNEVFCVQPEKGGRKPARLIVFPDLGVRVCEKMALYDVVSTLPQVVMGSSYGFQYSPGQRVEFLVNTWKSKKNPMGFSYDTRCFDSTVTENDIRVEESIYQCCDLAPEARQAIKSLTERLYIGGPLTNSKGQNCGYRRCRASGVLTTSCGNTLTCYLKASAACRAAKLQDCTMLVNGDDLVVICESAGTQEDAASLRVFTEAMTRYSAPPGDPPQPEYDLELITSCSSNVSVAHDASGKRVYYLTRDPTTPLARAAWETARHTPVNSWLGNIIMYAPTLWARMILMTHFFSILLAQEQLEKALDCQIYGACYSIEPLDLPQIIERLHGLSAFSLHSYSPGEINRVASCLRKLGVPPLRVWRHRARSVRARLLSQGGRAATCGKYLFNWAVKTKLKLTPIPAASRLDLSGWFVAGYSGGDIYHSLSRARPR

Molecule `CC(C)C1(CC(=O)O)OCCc2c1[nH]c1c(F)ccc(F)c21` (stereo not drawn) [Example 125, (5,8-difluoro-1-isopropyl-1,3,4,9-tetrahydropyrano[3,4-b]indol-1-yl)acetic acid] has an inhibition at 20 µM of 73% and an IC50 greater than 20 µM.
`CCCCC1(CC(=O)O)OCCc2c1[nH]c1c(F)ccc(F)c21` (stereo not drawn) [Example 126, (1-butyl-5,8-difluoro-1,3,4,9-tetrahydropyrano[3,4-b]indol-1-yl)acetic acid] showed an inhibition at 20 µM of 35% and an IC50 greater than 20 µM.
`C/C=C/CCC1(CC(=O)O)OCCc2c1[nH]c1c(F)ccc(F)c21` (stereo not drawn) [Example 127, {5,8-difluoro-1-[(3E)-pent-3-enyl]-1,3,4,9-tetrahydropyrano[3,4-b]indol-1-yl}acetic acid] showed an inhibition at 20 µM of 24% and an IC50 greater than 20 µM.
For `O=C(O)CC1(c2ccc(C(=O)O)cc2)OCCc2c1[nH]c1c(F)ccc(F)c21` (stereo not drawn) [Example 128, 4-[1-(carboxymethyl)-5,8-difluoro-1,3,4,9-tetrahydropyrano[3,4-b]indol-1-yl]benzoic acid], the inhibition at 20 µM was 70% and the IC50 was greater than 20 µM.
`CC1(CC(=O)O)OCCc2c1[nH]c1c(Cl)ccc(C(F)(F)F)c21` (stereo not drawn) [Example 129, [8-chloro-1-methyl-5-(trifluoromethyl)-1,3,4,9-tetrahydropyrano[3,4-b]indol-1-yl]acetic acid] gave an inhibition at 20 µM of 45% and an IC50 greater than 20 µM.
`CCC1(CC(=O)O)OCCc2c1[nH]c1c(Cl)ccc(C(F)(F)F)c21` (stereo not drawn) [Example 130, [8-chloro-1-ethyl-5-(trifluoromethyl)-1,3,4,9-tetrahydropyrano[3,4-b]indol-1-yl]acetic acid] gave an inhibition at 20 µM of 77% and an IC50 of 5.5 µM.
With `CCCC1(CC(=O)O)OCCc2c1[nH]c1c(Cl)ccc(C(F)(F)F)c21` (stereo not drawn) [Example 131, [8-chloro-1-propyl-5-(trifluoromethyl)-1,3,4,9-tetrahydropyrano[3,4-b]indol-1-yl]acetic acid] the inhibition at 20 µM was 93% and the IC50 was 0.32 µM.
`CC(C)C1(CC(=O)O)OCCc2c1[nH]c1c(Cl)ccc(C(F)(F)F)c21` (stereo not drawn) [Example 132, [8-chloro-1-isopropyl-5-(trifluoromethyl)-1,3,4,9-tetrahydropyrano[3,4-b]indol-1-yl]acetic acid] gave an inhibition at 20 µM of 78% and an IC50 of 9.5 µM.
`CCCCC1(CC(=O)O)OCCc2c1[nH]c1c(Cl)ccc(C(F)(F)F)c21` (stereo not drawn) [Example 133, [1-butyl-8-chloro-5-(trifluoromethyl)-1,3,4,9-tetrahydropyrano[3,4-b]indol-1-yl]acetic acid] was tested, and the inhibition at 20 µM was 88% and the IC50 was 0.7 µM.
`C/C=C/CCC1(CC(=O)O)OCCc2c1[nH]c1c(Cl)ccc(C(F)(F)F)c21` (stereo not drawn) [Example 134, [8-chloro-1-[(3E)-pent-3-enyl]-5-(trifluoromethyl)-1,3,4,9-tetrahydropyrano[3,4-b]indol-1-yl]acetic acid] was tested, and the inhibition at 20 µM was 28% and the IC50 was greater than 20 µM.
`O=C(O)CC1(c2ccccc2)OCCc2c1[nH]c1c(Cl)ccc(C(F)(F)F)c21` (stereo not drawn) [Example 135, [8-chloro-1-phenyl-5-(trifluoromethyl)-1,3,4,9-tetrahydropyrano[3,4-b]indol-1-yl]acetic acid] gave an inhibition at 20 µM of 55% and an IC50 greater than 20 µM.
`O=C(O)CC1(c2ccoc2)OCCc2c1[nH]c1c(Cl)ccc(C(F)(F)F)c21` (stereo not drawn) [Example 136, [8-chloro-1-(3-furyl)-5-(trifluoromethyl)-1,3,4,9-tetrahydropyrano[3,4-b]indol-1-yl]acetic acid] was tested, and the inhibition at 20 µM was 81% and the IC50 was 4.3 µM.
For `Cc1ccc(C)c2c3c([nH]c12)C(C)(CC(=O)O)OCC3` (stereo not drawn) [Example 137, (1,5,8-trimethyl-1,3,4,9-tetrahydropyrano[3,4-b]indol-1-yl)acetic acid], the inhibition at 20 µM was 5% and the IC50 was greater than 20 µM.
Molecule `CCC1(CC(=O)O)OCCc2c1[nH]c1c(C)ccc(C)c21` (stereo not drawn) [Example 138, (1-ethyl-5,8-dimethyl-1,3,4,9-tetrahydropyrano[3,4-b]indol-1-yl)acetic acid] has an inhibition at 20 µM of 38% and an IC50 greater than 20 µM.
Molecule `CCCC1(CC(=O)O)OCCc2c1[nH]c1c(C)ccc(C)c21` (stereo not drawn) [Example 139, (5,8-dimethyl-1-propyl-1,3,4,9-tetrahydropyrano[3,4-b]indol-1-yl)acetic acid] has an inhibition at 20 µM of 40% and an IC50 of 8.3 µM.
Work on `Cc1ccc(F)c2c3c([nH]c12)C(C)(CC(=O)O)OCC3` (stereo not drawn) [Example 140, (5-fluoro-1,8-dimethyl-1,3,4,9-tetrahydropyrano[3,4-b]indol-1-yl)acetic acid] yielded an inhibition at 20 µM of 28% and an IC50 greater than 20 µM.
`CCCC1(CC(=O)O)OCCc2c1[nH]c1c(C)ccc(F)c21` (stereo not drawn) [Example 141, (5-fluoro-8-methyl-1-propyl-1,3,4,9-tetrahydropyrano[3,4-b]indol-1-yl)acetic acid] gave an inhibition at 20 µM of 79% and an IC50 of 1.4 µM.
`CCC1(CC(=O)O)OCCc2c1[nH]c1c(C)ccc(F)c21` (stereo not drawn) [Example 142, (1-ethyl-5-fluoro-1,3,4,9-tetrahydro-8-methyl-pyrano[3,4-b]indol-1-yl)acetic acid] was tested, and the inhibition at 20 µM was 39% and the IC50 was 19.8 µM.
Molecule `Cc1ccc(F)c2c3c([nH]c12)C(CC(=O)O)(C(C)C)OCC3` (stereo not drawn) [Example 143, (5-fluoro-1-isopropyl-8-methyl-1,3,4,9-tetrahydropyrano[3,4-b]indol-1-yl)acetic acid] has an inhibition at 20 µM of 56% and an IC50 of 16.5 µM.
For `CCCCC1(CC(=O)O)OCCc2c1[nH]c1c(C)ccc(F)c21` (stereo not drawn) [Example 144, (1-butyl-5-fluoro-8-methyl-1,3,4,9-tetrahydropyrano[3,4-b]indol-1-yl)acetic acid], the inhibition at 20 µM was 73% and the IC50 was 6 µM.
Molecule `C/C=C/CCC1(CC(=O)O)OCCc2c1[nH]c1c(C)ccc(F)c21` (stereo not drawn) [Example 145, {5-fluoro-8-methyl-1-[(3E)-pent-3-enyl]-1,3,4,9-tetrahydropyrano[3,4-b]indol-1-yl}acetic acid] has an inhibition at 20 µM of 20% and an IC50 greater than 20 µM.
With `Cc1ccc(F)c2c3c([nH]c12)C(CC(=O)O)(c1ccccc1)OCC3` (stereo not drawn) [Example 146, (5-fluoro-8-methyl-1-phenyl-1,3,4,9-tetrahydropyrano[3,4-b]indol-1-yl)acetic acid] the inhibition at 20 µM was 45% and the IC50 was greater than 20 µM.
`CCCC1(CC(=O)O)OCCc2c1[nH]c1c(F)ccc(-c3ccccc3)c21` (stereo not drawn) [Example 147, (8-fluoro-5-phenyl-1-propyl-1,3,4,9-tetrahydropyrano[3,4-b]indol-1-yl)acetic acid] was tested, and the inhibition at 20 µM was 34%.
With `CCCC1(CC(=O)O)OCCc2c1[nH]c1c(F)ccc(-c3ccc(C)cc3)c21` (stereo not drawn) [Example 148, [8-fluoro-5-(4-methylphenyl)-1-propyl-1,3,4,9-tetrahydropyrano[3,4-b]indol-1-yl]acetic acid] the inhibition at 20 µM was 47% and the IC50 was greater than 20 µM.
For `CCCC1(CC(=O)O)OCCc2c1[nH]c1c(F)ccc(-c3ccc(OC)cc3)c21` (stereo not drawn) [Example 149, [8-fluoro-5-(4-methoxyphenyl)-1-propyl-1,3,4,9-tetrahydropyrano[3,4-b]indol-1-yl]acetic acid], the inhibition at 20 µM was less than 11% and the IC50 was 16 µM.
`CCCC1(CC(=O)O)OCCc2c1[nH]c1c(F)ccc(-c3ccc(C(F)(F)F)cc3)c21` (stereo not drawn) [Example 150, {8-fluoro-1-propyl-5-[4-(trifluoromethyl)phenyl]-1,3,4,9-tetrahydropyrano[3,4-b]indol-1-yl}acetic acid] gave an inhibition at 20 µM of less than 37% and an IC50 of 9 µM.
With `CCCC1(CC(=O)O)OCCc2c1[nH]c1c(F)ccc(-c3cccc(N)c3)c21` (stereo not drawn) [Example 151, [5-(3-aminophenyl)-8-fluoro-1-propyl-1,3,4,9-tetrahydropyrano[3,4-b]indol-1-yl]acetic acid] the inhibition at 20 µM was 34% and the IC50 was greater than 20 µM.
`CCCC1(CC(=O)O)OCCc2c1[nH]c1c(F)ccc(Br)c21` (stereo not drawn) [Example 152, (5-bromo-8-fluoro-1-propyl-1,3,4,9-tetrahydropyrano[3,4-b]indol-1-yl)acetic acid] was tested, and the inhibition at 20 µM was 87% and the IC50 was 1 µM.
With `CCCC1(CC(=O)O)OCCc2c1[nH]c1c(C)ccc(Br)c21` (stereo not drawn) [Example 153, (5-bromo-8-methyl-1-propyl-1,3,4,9-tetrahydropyrano[3,4-b]indol-1-yl)acetic acid] the inhibition at 20 µM was 93% and the IC50 was 0.3 µM.
`CC1(CC(=O)O)OCCc2c1[nH]c1c(Cl)cc(Cl)c(Cl)c21` (stereo not drawn) [Example 154, (5,6,8-trichloro-1-methyl-1,3,4,9-tetrahydropyrano[3,4-b]indol-1-yl)acetic acid] was tested, and the inhibition at 20 µM was 22% and the IC50 was 22.4 µM.
Work on `CCC1(CC(=O)O)OCCc2c1[nH]c1c(Cl)cc(Cl)c(Cl)c21` (stereo not drawn) [Example 155, (5,6,8-trichloro-1-ethyl-1,3,4,9-tetrahydropyrano[3,4-b]indol-1-yl)acetic acid] yielded an inhibition at 20 µM of 84% and an IC50 of 0.47 µM.
With `CCCC1(CC(=O)O)OCCc2c1[nH]c1c(Cl)cc(Cl)c(Cl)c21` (stereo not drawn) [Example 156, (5,6,8-trichloro-1-propyl-1,3,4,9-tetrahydropyrano[3,4-b]indol-1-yl)acetic acid] the inhibition at 20 µM was 88% and the IC50 was 0.08 µM.
For `CC(C)C1(CC(=O)O)OCCc2c1[nH]c1c(Cl)cc(Cl)c(Cl)c21` (stereo not drawn) [Example 157, (5,6,8-trichloro-1-isopropyl-1,3,4,9-tetrahydropyrano[3,4-b]indol-1-yl)acetic acid], the inhibition at 20 µM was 89% and the IC50 was 0.6 µM.
Work on `CCCCC1(CC(=O)O)OCCc2c1[nH]c1c(Cl)cc(Cl)c(Cl)c21` (stereo not drawn) [Example 158, (1-butyl-5,6,8-trichloro-1,3,4,9-tetrahydropyrano[3,4-b]indol-1-yl)acetic acid] yielded an inhibition at 20 µM of 91% and an IC50 of 0.28 µM.
Work on `C/C=C/CCC1(CC(=O)O)OCCc2c1[nH]c1c(Cl)cc(Cl)c(Cl)c21` (stereo not drawn) [Example 159, {5,6,8-trichloro-1-[(3E)-pent-3-enyl]-1,3,4,9-tetrahydropyrano[3,4-b]indol-1-yl}acetic acid] yielded an inhibition at 20 µM of 36% and an IC50 greater than 20 µM.
